Assay results reported in ChEMBL document CHEMBL5465560, “Selectivity Literature for EUbOPEN Chemogenomic Library” (2024).
Blank lines part the entries; values can stand above or below the compound they belong to.

What was measured:
[1] = target: T1, Aurora kinase C (Homo sapiens) (UniProt Q9UQB9); details: at 10 µM
T1 sequence (whole entry): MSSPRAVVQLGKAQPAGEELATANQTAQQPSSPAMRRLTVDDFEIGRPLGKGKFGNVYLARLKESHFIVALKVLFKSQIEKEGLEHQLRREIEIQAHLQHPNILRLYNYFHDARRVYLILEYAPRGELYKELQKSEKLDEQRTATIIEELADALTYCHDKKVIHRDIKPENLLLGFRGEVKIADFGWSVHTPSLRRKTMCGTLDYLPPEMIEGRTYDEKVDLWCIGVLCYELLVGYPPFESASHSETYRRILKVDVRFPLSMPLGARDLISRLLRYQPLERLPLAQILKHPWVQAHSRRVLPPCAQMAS

[2] = target: T2, Serine/threonine-protein kinase haspin (Homo sapiens) (UniProt Q8TF76); experiment: Selectivity interaction (Kinase panel (DSF assay)) EUB0001559a GSG2
T2 sequence (whole entry): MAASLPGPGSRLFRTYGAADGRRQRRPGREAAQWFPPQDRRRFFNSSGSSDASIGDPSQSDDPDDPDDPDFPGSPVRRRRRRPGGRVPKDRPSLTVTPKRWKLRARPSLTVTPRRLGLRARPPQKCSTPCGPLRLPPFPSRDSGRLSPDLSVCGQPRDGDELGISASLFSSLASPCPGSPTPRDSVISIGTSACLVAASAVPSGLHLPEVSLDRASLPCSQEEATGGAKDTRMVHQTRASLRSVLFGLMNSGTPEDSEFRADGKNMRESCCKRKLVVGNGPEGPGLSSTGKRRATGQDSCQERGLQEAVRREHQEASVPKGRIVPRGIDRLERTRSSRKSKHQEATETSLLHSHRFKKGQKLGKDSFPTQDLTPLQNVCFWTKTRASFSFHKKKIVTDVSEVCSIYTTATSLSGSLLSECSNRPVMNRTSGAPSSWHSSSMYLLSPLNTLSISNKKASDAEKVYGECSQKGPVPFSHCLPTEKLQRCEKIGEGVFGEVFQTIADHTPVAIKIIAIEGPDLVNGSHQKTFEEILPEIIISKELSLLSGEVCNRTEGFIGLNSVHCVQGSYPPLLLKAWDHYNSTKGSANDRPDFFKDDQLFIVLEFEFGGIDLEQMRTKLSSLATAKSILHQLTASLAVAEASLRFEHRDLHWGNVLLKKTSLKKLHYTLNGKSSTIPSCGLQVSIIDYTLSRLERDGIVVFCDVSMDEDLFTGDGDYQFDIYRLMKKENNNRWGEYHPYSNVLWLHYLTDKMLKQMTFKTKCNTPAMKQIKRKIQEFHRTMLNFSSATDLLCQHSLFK

[3] = target: Phosphatidylinositol 4,5-bisphosphate 3-kinase catalytic subunit beta isoform (Homo sapiens) (UniProt P42338); experiment: Selectivity interaction (Kinase panel (literature)) EUB0001199aCl PIK3CB; details: at 1 µM
[4] = target: Mitogen-activated protein kinase kinase kinase kinase 5 (Homo sapiens) (UniProt Q9Y4K4); experiment: Selectivity interaction (KinomeScan (DiscoverX)) EUB0000655a MAP4K5; details: at 10 µM
[5] = target: T3, cGMP-dependent protein kinase 2 (Homo sapiens) (UniProt Q13237); experiment: Selectivity interaction (KinomeScan (DiscoverX)) EUB0000045b PRKG2
T3 sequence (whole entry): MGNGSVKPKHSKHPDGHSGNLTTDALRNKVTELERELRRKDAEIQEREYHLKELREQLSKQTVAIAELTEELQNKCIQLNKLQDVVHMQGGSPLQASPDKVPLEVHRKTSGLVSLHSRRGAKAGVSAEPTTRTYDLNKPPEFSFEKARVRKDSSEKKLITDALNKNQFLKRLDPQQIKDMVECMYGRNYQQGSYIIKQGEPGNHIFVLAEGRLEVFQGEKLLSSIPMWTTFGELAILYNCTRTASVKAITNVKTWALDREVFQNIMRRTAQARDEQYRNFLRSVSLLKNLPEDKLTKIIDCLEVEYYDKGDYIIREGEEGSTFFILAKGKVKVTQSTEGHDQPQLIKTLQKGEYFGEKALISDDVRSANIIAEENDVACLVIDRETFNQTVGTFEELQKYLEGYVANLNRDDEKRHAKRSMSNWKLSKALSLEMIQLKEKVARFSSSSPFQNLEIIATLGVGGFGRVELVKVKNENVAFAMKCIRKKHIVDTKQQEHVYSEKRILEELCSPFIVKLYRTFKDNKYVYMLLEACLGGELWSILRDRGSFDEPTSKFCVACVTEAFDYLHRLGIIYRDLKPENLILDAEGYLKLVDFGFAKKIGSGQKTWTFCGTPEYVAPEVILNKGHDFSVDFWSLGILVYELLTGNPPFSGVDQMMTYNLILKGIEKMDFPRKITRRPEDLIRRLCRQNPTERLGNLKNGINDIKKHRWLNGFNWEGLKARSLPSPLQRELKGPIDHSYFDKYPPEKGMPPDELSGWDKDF

[6] = target: T4, Serine/threonine-protein kinase BRSK1 (Homo sapiens) (UniProt Q8TDC3); experiment: Selectivity interaction (Upstate Kinase Profiler service (Millipore)) EUB0000056c BRSK1; details: at 1 µM
T4 sequence (whole entry): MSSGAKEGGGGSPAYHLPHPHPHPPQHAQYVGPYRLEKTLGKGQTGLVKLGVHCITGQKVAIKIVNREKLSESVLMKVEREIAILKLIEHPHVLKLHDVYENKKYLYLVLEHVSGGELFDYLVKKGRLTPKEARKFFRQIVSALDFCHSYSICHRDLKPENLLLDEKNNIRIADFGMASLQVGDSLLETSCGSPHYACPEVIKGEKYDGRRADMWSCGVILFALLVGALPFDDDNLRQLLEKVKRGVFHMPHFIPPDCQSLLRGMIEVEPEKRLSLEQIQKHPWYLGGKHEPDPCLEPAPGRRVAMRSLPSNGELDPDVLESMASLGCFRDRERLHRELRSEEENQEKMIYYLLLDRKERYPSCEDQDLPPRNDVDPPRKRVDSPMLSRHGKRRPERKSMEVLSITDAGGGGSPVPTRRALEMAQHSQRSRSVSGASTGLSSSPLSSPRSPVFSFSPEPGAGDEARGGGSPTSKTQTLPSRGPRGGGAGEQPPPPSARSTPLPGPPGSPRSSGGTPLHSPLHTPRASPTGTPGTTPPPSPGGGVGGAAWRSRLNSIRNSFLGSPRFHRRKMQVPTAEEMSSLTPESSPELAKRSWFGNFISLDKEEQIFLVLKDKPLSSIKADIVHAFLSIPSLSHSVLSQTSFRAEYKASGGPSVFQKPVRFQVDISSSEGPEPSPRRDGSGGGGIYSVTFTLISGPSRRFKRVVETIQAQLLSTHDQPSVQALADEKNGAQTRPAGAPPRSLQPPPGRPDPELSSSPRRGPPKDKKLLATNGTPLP

[7] = target: Protein-tyrosine kinase 2-beta (Homo sapiens) (UniProt Q14289); experiment: Selectivity interaction (KinomeScan (DiscoverX)) EUB0000092b PTK2B; details: at 10 µM
[8] = test system: eIF-2-alpha kinase GCN2 (Homo sapiens), Q9P2K8 [S808G]; experiment: Selectivity interaction (KinomeScan (DiscoverX)) EUB0000092b EIF2AK4; details: at 10 µM
Sequence of eIF-2-alpha kinase GCN2 (Homo sapiens), Q9P2K8 [S808G] (Q9P2K8 whole entry S808G): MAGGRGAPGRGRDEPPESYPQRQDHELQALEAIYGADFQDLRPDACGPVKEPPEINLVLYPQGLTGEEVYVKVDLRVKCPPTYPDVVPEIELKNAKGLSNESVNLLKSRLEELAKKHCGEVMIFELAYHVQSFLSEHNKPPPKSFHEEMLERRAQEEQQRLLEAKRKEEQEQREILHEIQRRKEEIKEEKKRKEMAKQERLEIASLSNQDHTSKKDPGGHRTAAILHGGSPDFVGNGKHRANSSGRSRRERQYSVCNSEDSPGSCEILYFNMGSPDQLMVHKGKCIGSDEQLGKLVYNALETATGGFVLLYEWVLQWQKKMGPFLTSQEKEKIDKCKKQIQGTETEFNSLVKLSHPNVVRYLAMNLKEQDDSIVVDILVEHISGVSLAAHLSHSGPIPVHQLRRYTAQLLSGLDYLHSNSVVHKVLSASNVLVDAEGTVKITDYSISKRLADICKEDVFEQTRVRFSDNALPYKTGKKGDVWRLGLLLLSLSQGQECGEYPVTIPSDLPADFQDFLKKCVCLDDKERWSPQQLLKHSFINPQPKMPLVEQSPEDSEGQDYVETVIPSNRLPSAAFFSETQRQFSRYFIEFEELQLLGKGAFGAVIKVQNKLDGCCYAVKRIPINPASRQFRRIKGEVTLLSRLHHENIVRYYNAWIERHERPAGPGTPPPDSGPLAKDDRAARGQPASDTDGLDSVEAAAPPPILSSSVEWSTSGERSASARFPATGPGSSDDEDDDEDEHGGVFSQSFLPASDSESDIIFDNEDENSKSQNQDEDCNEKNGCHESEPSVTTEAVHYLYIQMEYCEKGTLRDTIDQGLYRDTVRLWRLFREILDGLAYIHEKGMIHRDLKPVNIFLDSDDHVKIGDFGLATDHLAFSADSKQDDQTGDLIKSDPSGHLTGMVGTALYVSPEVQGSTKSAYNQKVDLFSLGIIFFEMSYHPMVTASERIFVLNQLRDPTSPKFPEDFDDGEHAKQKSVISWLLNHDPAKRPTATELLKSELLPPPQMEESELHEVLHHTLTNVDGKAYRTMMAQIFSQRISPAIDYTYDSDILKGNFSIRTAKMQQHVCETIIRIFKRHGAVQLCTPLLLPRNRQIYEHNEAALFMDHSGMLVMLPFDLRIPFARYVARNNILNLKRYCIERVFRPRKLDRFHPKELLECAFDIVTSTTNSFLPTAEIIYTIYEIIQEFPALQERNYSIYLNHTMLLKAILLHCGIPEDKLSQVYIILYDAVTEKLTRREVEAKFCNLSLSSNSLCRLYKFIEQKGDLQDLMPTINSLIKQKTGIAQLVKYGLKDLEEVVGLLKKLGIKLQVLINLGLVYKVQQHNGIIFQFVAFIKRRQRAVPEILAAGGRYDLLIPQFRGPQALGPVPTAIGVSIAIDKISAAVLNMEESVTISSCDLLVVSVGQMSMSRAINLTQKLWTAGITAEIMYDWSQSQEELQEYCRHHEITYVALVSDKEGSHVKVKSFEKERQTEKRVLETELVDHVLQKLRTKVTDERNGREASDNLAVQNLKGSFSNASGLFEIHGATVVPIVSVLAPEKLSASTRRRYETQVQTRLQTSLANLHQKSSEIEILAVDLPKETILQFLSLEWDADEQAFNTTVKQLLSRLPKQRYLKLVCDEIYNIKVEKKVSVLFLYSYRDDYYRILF

Sequence of Protein-tyrosine kinase 2-beta (Homo sapiens) (Q14289 whole entry, looked up): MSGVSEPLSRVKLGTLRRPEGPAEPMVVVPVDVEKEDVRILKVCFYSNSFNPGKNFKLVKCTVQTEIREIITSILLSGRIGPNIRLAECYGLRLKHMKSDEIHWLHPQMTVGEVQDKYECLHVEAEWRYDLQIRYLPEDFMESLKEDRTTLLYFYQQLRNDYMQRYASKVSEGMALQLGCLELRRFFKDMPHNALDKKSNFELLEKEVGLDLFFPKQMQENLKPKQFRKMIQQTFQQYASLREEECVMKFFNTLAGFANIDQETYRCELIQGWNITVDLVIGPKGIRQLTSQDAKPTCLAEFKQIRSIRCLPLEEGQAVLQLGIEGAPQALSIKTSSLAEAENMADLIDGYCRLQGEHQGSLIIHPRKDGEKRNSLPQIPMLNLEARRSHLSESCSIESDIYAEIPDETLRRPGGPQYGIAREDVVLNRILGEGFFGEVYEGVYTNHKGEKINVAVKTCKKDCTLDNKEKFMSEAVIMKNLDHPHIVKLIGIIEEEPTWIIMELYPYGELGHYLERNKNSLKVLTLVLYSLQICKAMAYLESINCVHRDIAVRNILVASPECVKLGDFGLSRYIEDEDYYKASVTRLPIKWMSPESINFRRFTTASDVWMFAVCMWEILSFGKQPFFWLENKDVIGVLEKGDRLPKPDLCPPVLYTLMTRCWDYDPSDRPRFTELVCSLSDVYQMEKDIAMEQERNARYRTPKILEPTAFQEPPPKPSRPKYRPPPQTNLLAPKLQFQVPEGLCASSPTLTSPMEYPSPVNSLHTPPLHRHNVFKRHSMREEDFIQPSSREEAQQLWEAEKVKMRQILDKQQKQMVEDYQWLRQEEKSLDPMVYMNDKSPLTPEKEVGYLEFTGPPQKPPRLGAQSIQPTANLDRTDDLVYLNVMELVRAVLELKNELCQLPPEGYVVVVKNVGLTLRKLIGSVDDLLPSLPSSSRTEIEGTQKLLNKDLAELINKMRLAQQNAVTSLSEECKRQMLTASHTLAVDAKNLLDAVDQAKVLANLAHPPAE
Sequence of Phosphatidylinositol 4,5-bisphosphate 3-kinase catalytic subunit beta isoform (Homo sapiens) (P42338 whole entry, looked up, canonical isoform): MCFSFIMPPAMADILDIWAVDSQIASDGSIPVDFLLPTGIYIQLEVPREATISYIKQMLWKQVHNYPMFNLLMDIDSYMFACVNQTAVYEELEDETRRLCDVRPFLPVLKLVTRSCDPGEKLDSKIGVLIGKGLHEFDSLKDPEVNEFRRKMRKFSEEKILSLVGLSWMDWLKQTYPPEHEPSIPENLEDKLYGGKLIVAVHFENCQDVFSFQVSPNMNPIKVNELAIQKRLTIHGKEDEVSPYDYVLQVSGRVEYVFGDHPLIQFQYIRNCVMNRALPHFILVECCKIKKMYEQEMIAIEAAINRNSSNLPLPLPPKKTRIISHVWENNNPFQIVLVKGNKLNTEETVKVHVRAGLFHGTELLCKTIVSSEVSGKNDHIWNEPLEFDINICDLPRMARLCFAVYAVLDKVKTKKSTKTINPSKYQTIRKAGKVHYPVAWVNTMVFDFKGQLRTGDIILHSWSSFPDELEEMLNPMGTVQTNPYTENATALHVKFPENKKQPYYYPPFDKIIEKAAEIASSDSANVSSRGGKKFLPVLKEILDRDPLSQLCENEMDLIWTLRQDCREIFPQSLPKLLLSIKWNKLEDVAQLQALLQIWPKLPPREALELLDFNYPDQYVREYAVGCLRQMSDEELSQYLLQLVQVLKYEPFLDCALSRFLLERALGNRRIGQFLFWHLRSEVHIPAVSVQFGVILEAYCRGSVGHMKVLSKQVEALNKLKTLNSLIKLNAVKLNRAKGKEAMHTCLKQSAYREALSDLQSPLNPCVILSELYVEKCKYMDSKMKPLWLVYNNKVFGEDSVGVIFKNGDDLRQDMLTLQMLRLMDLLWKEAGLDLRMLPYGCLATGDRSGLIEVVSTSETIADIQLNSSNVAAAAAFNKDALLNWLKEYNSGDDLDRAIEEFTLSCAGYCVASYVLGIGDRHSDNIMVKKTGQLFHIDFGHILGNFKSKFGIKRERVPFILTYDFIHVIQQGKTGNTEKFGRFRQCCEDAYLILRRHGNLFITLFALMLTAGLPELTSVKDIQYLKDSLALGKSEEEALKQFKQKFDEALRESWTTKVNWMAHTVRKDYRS
Sequence of Mitogen-activated protein kinase kinase kinase kinase 5 (Homo sapiens) (Q9Y4K4 whole entry, looked up): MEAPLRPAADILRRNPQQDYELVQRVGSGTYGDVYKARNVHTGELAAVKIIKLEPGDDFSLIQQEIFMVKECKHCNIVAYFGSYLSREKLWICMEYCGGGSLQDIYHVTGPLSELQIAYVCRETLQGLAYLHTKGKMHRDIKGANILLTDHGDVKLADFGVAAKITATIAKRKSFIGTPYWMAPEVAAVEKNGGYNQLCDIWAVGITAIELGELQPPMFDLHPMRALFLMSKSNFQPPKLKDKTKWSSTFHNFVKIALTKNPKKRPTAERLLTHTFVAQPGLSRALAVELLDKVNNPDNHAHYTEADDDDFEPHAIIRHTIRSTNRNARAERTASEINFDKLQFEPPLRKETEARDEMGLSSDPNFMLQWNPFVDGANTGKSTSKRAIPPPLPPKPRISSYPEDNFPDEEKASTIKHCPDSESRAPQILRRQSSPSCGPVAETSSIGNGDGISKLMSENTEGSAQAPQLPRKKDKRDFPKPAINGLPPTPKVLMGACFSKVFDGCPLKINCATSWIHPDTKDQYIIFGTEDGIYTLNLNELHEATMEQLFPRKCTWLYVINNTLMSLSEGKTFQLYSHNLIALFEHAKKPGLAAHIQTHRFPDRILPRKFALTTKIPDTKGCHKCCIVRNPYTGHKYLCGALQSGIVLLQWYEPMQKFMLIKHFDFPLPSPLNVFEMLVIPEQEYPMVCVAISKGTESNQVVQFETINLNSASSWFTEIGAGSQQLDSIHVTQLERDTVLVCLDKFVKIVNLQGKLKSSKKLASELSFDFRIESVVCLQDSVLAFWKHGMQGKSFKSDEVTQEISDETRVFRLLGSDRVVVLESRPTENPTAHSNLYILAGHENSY

% of control [1]: 100%
Structure (SMILES): CCN(CC)CCCCNc1ncc2cc(-c3cc(OC)cc(OC)c3)c(NC(=O)NC(C)(C)C)nc2n1

dTM [2]: 1.8 K
Structure (SMILES): CN(C(=O)c1cnn2cccnc12)c1cc2c(cc1N1CCOCC1)C(=O)N(C[C@@H](F)C(C)(C)O)C2

% of inhibition [3]: 1%
Structure (SMILES): CN1Cc2nccc(-c3cn(C)nc3-c3ccc(F)cc3)c2C1=O

Structure (SMILES): CN(C)CCOc1ccc(-c2nc(-c3ccncc3)c(-c3ccc4c(c3)CC/C4=N\O)[nH]2)cc1
% of control [4]: 97%

Structure (SMILES): C=CC(=O)Nc1cc(-n2c(=O)ccc3cnc4ccc(-c5ccc(NS(C)(=O)=O)cc5)cc4c32)ccc1C
% of control ([5]; at 1 µM): 100%
% of control ([5]; at 10 µM): 95%

% of inhibition [6]: 80%
Structure (SMILES): Cc1ccc(-c2ccc3c(ccc4sc5c(c43)NC[C@@H](C)NC5=O)n2)cn1

Structure (SMILES): CCC(=O)N1CCN(c2ccc(-n3c(=O)ccc4cnc5ccc(-c6cnc7ccccc7c6)cc5c43)cc2C(F)(F)F)CC1
% of control [7]: 100%
% of control [8]: 99%
